Experimental data from paper PMC10746543, “Design principles for cyclin K molecular glue degraders” (Nature Chemical Biology, 2023).
Several values for one entry are separate records, joined by “and”; a condition that tells them apart may be missing. Identical values can stand only once. Like-named read-outs stand apart in the source and are kept apart here.

Assays:
[1] = molecular target: T1, CDK12–cyclin K and DDB1 (Homo sapiens, UniProt Q16531+Q9NYV4, K965R); experiment: TR-FRET ternary complex formation assay (compound titration); assay type: binding; conditions: for TR-FRET signal at compound concentration: replicate titrations; for TR-FRET signal at compound concentration 0.468 nM / TR-FRET signal at compound concentration 2.16 nM / TR-FRET signal at compound concentration 3.6 nM / TR-FRET signal at compound concentration 7.92001 nM / TR-FRET signal at compound concentration 15.84 nM / TR-FRET signal at compound concentration 30.96 nM / TR-FRET signal at compound concentration 62.6401 nM / TR-FRET signal at compound concentration 125.28 nM / TR-FRET signal at compound concentration 244.8 nM / TR-FRET signal at compound concentration 993.601 nM / TR-FRET signal at compound concentration 2001.6 nM: raw titration data
T1 construct: His6–CDK12 (a.a. 713–1,052); full-length or beta-propeller B domain deletion (ΔBPB: a.a. 396–705 deleted) constructs of His6–DDB1ΔBPB, StrepII–Avi–DDB1, or His6–Spy–DDB1; made in house; host or cells: Trichoplusia ni High Five insect cells (baculovirus)
T1 sequence (Q9NYV4 713-1052 K965R): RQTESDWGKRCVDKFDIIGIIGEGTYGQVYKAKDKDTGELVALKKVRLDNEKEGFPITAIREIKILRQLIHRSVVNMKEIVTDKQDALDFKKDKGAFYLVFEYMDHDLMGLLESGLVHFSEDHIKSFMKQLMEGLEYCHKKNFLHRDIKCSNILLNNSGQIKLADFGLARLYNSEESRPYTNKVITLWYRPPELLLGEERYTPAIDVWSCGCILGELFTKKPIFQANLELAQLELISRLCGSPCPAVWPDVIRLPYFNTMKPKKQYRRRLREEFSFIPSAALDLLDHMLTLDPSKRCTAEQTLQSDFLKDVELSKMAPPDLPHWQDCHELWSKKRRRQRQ
T1 sequence (O75909 1-267 partner): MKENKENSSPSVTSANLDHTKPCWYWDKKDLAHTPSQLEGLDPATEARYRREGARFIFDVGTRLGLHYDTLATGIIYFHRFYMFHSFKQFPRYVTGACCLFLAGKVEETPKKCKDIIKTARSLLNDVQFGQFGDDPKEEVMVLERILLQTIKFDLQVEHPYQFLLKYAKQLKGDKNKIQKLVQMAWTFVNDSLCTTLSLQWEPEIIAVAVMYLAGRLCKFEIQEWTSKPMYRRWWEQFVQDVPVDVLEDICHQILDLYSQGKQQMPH
T1 sequence (Q16531 whole entry): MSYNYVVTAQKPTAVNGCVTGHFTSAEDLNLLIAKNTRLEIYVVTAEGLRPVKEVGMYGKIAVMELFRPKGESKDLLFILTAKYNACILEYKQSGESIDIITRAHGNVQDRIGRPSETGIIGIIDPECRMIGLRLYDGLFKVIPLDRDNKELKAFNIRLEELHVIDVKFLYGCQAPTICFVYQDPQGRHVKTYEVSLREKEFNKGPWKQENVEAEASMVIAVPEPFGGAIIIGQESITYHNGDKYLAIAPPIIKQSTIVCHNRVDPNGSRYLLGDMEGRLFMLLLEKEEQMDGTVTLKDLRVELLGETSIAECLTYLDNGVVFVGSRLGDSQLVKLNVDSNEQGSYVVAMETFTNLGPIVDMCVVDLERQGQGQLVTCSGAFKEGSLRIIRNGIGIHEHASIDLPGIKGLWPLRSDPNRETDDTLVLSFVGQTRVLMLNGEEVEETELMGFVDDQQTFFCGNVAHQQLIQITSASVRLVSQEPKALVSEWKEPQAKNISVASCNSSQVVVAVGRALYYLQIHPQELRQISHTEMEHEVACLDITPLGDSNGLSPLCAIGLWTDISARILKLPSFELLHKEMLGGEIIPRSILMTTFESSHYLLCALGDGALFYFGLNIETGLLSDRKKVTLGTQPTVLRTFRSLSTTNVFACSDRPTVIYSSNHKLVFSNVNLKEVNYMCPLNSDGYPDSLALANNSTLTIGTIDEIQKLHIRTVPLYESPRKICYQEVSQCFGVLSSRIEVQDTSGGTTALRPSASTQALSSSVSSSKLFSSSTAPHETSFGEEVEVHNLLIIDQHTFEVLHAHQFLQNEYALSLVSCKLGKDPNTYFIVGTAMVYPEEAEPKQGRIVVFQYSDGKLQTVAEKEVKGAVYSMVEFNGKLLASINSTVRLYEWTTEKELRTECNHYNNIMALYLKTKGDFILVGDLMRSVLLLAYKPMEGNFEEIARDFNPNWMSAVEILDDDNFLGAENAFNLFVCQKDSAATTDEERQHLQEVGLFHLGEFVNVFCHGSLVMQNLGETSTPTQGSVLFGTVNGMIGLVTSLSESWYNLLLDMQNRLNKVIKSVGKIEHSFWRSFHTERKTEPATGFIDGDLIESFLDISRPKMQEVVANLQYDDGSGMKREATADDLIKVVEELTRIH
Summary of the method: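 Background fluorescence is reduced by reading 70 μs after excitation, and complex formation is followed as the 520:490 nm fluorescence ratio.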

[2] = system: cyclin K–eGFP degradation reporter; experiment: Cyclin K reporter stability analysis (dual-color cyclin K–eGFP reporter); assay type: cell-based, human
Summary of the method: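 HEK293T–Cas9 cells carrying the cyclin K–eGFP reporter were seeded at 1 × 10^6 ml^−1 and exposed to drug or DMSO for 5 h. Flow cytometry gave geometric means of eGFP and mCherry in round, mCherry-positive cells. The eGFP/mCherry ratio was normalized to the mean of three DMSO controls.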

[3] = system: HEK293T cells; experiment: Drug sensitivity assay (CellTiter-Glo viability) with or without MLN4924 pretreatment; assay type: cell-based, human; conditions: for EC50: Homo sapiens, HEK-293T; for Toxicity rescue: MLN4924-mediated cytotoxicity rescue, 10 µM used where n.d.
Summary of the method: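 First, cells (HEK293T–Cas9, 0.15 × 10^6 ml^−1) are exposed to DMSO or 100 nM MLN4924. Next, drugs follow at 2 h. Finally, CellTiter-Glo is read at day 3 and normalised to DMSO.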

[4] = sheet MOESM7, read-out: log TR-FRET EC50 (converted)
[5] = Supplementary Table 2, HEK293T viability, 72 h, compound alone, read-out: Cellular assays EC50
[6] = compound concentration 0.468 nM
[7] = compound concentration 7.92001 nM
[8] = compound concentration 15.84 nM
[9] = compound concentration 30.96 nM
[10] = compound concentration 62.6401 nM
[11] = compound concentration 125.28 nM
[12] = compound concentration 244.8 nM
[13] = compound concentration 993.601 nM
[14] = compound concentration 2001.6 nM
[15] = in vitro complex formation, 50 nM CDK12–cyclin K, 100 nM DDB1, text and figures, read-out: TR-FRET EC50
[16] = source data sheet correlations, read-out: TR-FRET EC50
[17] = source data sheet correlations, read-out: DC50

SMILES | EC50 [1, 4] | EC50 [3, 5] | Toxicity rescue ([3]; Supplementary Table 2) | EC50 [1, 15] | EC50 [1, 16] | DC50 [2, 17] | TR-FRET signal at compound concentration 0.468 nM [1, 6] | TR-FRET signal at compound concentration 2.16 nM ([1]; compound concentration 2.16 nM) | TR-FRET signal at compound concentration 3.6 nM ([1]; compound concentration 3.6 nM) | TR-FRET signal at compound concentration 7.92001 nM [1, 7] | TR-FRET signal at compound concentration 15.84 nM [1, 8] | TR-FRET signal at compound concentration 30.96 nM [1, 9] | TR-FRET signal at compound concentration 62.6401 nM [1, 10] | TR-FRET signal at compound concentration 125.28 nM [1, 11] | TR-FRET signal at compound concentration 244.8 nM [1, 12] | TR-FRET signal at compound concentration 993.601 nM [1, 13] | TR-FRET signal at compound concentration 2001.6 nM [1, 14] | also measured
CC[C@H](CO)Nc1nc(NCCOCc2ccccc2)c2ncn(C(C)C)c2n1 [DS40] | 1300 nM | > 10000 nM | 0% |  |  |  |  |  |  |  |  |  |  |  |  |  |  | TR-FRET signal ([1]; compound concentration 4.68 nM): 0.2076 and 0.2321; TR-FRET signal ([1]; compound concentration 21.6 nM): 0.2226 and 0.2483; TR-FRET signal ([1]; compound concentration 36 nM): 0.2561 and 0.2746; TR-FRET signal ([1]; compound concentration 79.2001 nM): 0.3133 and 0.3047; TR-FRET signal ([1]; compound concentration 158.4 nM): 0.4014 and 0.4131; TR-FRET signal ([1]; compound concentration 309.6 nM): 0.5676 and 0.5799; TR-FRET signal ([1]; compound concentration 626.401 nM): 0.7977 and 0.8028; TR-FRET signal ([1]; compound concentration 1252.8 nM): 1.088 and 1.118; TR-FRET signal ([1]; compound concentration 2448 nM): 1.44 and 1.508; TR-FRET signal ([1]; compound concentration 9936.01 nM): 1.852 and 2.056; TR-FRET signal ([1]; compound concentration 20016 nM): 1.876 and 2.063; DC50 ([2]; Supplementary Table 2, HEK293T cycK-eGFP reporter, 5 h, read-out: Cellular assays DC50): > 10000 nM
CC[C@H](CO)Nc1nc(NCc2ccn(-c3cccc(Cl)c3)n2)c2ncn(C(C)C)c2n1 [DS43] | 43.7 nM | 1260 nM | 697% | 44 ± 2 nM | 43.7 nM | 75 nM |  |  |  |  |  |  |  |  |  |  |  | TR-FRET signal at compound concentration [1, 6]: 0.2854 and 0.3016; TR-FRET signal at compound concentration ([1]; compound concentration 2.16 nM): 0.3338 and 0.3545; TR-FRET signal at compound concentration ([1]; compound concentration 3.6 nM): 0.4308 and 0.466; TR-FRET signal at compound concentration [1, 7]: 0.6201 and 0.666; TR-FRET signal at compound concentration [1, 8]: 0.9968 and 1.0413; TR-FRET signal at compound concentration [1, 9]: 1.655 and 1.7184; TR-FRET signal at compound concentration [1, 10]: 2.415 and 2.607; TR-FRET signal at compound concentration [1, 11]: 3.042 and 3.307; TR-FRET signal at compound concentration [1, 12]: 3.43 and 3.794; TR-FRET signal at compound concentration [1, 13]: 3.717 and 4.015; TR-FRET signal at compound concentration [1, 14]: 3.6778 and 3.923; EC50 ([3]; Supplementary Fig. 5, HEK293T, CellTiter Glo, 72h, pre-treatment with 100 nM MLN4924, read-out: Viability EC50, with MLN4924): 15500 nM; % MLN4924 rescue ([3]; PCA input): 649%
CC[C@H](CO)Nc1nc(NCc2ccc(-c3ccncc3)cc2)c2ncn(C(C)C)c2n1 [DS44] | 35.6 nM | 300 nM | 857% | 36 ± 2 nM | 35.6 nM | 62 nM | 0.2822 and 0.2969 and 0.203 and 0.2011 | 0.3572 and 0.3626 and 0.2614 and 0.2567 | 0.4873 and 0.5297 and 0.3719 and 0.3575 | 0.7272 and 0.8095 and 0.5738 and 0.5707 | 1.129 and 1.28 and 0.9406 and 0.8919 | 1.72 and 1.9375 and 1.384 and 1.358 | 2.307 and 2.567 and 2.074 and 2.11 | 2.789 and 3.0284 and 2.71 and 2.759 | 3 and 3.3475 and 2.848 and 3.078 | 3.126 and 3.521 and 3.221 and 3.228 | 3.1032 and 3.41 and 3.238 and 3.193 | 
CC[C@H](CO)Nc1nc(NCc2ccc(-c3cccnc3)cc2)c2ncn(C(C)C)c2n1 [DS45] | 45.1 nM | 242 nM | 1302% | 45 ± 2 nM | 45.1 nM | 36 nM | 0.2618 and 0.2852 | 0.3231 and 0.3368 | 0.3927 and 0.4029 | 0.6005 and 0.5751 | 0.9407 and 0.892 | 1.641 and 1.433 | 2.534 and 2.304 | 3.191 and 3.0985 | 3.469 and 3.534 | 3.64 and 3.842 | 3.5487 and 3.801 | 
